# Reference: the kinase profiling compilation of Christmann-Franck et al. (2016)
# Key:
# Assay in all cases: KINOMEscan competition binding
# Details in all cases: compound 10.0 µM
# PRKCD (human) = PRKCD (human) (UniProt Q05655)
# PTK6 (human) = PTK6 (human) (UniProt Q13882)
# CLK2 (human) = CLK2 (human) (UniProt P49760)
# DYRK1A (human) = DYRK1A (human) (UniProt Q13627)
# SLK (human) = SLK (human) (UniProt Q9H2G2)
# MAP2K4 (human) = MAP2K4 (human) (UniProt P45985)
# [1] = test system: KIT (human), P10721 [D816V]
# MAPK7 (human) = MAPK7 (human) (UniProt Q13164)
# CSNK1E (human) = CSNK1E (human) (UniProt P49674)
# CLK4 (human) = CLK4 (human) (UniProt Q9HAZ1)
# [2] = molecular target: JAK2 JH1 catalytic (human) (UniProt O60674)
# CAMKK1 (human) = CAMKK1 (human) (UniProt Q8N5S9)
# EPHB3 (human) = EPHB3 (human) (UniProt P54753)
# PDGFRA (human) = PDGFRA (human) (UniProt P16234)
# Sequence of PDGFRA (human) (P16234 whole entry, looked up): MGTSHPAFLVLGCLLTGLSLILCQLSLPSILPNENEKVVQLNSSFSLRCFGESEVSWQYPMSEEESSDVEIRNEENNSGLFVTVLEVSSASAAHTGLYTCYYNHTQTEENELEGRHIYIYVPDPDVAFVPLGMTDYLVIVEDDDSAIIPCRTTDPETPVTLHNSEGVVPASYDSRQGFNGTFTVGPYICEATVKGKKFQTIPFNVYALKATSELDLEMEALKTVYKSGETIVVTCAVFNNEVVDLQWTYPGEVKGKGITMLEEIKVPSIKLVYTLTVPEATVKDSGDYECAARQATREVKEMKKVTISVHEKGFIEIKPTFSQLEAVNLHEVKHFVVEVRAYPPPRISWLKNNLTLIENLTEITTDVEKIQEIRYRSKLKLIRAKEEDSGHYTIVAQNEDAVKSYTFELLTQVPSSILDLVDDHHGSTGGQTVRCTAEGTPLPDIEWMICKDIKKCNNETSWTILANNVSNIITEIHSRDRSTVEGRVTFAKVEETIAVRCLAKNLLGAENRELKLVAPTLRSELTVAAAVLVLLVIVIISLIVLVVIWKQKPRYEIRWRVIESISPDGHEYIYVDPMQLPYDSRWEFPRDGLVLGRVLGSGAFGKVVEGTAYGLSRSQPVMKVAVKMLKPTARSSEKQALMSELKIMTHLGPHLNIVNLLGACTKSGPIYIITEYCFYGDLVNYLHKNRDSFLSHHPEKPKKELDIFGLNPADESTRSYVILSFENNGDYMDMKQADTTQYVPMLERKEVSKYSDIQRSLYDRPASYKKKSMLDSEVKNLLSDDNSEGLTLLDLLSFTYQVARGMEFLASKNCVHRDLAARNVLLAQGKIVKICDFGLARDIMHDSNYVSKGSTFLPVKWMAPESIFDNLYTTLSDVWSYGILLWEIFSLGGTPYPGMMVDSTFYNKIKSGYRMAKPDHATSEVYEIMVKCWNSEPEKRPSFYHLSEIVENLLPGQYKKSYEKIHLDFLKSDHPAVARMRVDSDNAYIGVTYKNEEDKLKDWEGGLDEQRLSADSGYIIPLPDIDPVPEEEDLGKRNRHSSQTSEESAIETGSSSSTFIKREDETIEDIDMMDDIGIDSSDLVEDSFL
# MAP2K1 (human) = MAP2K1 (human) (UniProt Q02750)
# [3] = test system: EGFR (human), P00533 [P753S; 747-752 del]
# MAPK3 (human) = MAPK3 (human) (UniProt P27361)
# Sequence of MAPK3 (human) (P27361 whole entry, looked up): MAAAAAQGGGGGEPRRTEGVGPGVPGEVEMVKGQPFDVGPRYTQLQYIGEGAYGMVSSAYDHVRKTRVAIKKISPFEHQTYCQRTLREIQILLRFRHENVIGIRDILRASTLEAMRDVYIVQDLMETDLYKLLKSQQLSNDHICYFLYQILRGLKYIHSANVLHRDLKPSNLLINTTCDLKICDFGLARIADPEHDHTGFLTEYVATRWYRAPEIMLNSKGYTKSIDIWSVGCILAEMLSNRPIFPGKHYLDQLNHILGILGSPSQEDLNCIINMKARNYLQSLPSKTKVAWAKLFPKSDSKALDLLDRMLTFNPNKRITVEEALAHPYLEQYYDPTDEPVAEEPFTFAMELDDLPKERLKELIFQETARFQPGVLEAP
# CSK (human) = CSK (human) (UniProt P41240)
# PRKD3 (human) = PRKD3 (human) (UniProt O94806)
# RPS6KA6 KD1 (human) = RPS6KA6 KD1 (human) (UniProt Q9UK32)
# Sequence of RPS6KA6 KD1 (human) (Q9UK32 whole entry, looked up): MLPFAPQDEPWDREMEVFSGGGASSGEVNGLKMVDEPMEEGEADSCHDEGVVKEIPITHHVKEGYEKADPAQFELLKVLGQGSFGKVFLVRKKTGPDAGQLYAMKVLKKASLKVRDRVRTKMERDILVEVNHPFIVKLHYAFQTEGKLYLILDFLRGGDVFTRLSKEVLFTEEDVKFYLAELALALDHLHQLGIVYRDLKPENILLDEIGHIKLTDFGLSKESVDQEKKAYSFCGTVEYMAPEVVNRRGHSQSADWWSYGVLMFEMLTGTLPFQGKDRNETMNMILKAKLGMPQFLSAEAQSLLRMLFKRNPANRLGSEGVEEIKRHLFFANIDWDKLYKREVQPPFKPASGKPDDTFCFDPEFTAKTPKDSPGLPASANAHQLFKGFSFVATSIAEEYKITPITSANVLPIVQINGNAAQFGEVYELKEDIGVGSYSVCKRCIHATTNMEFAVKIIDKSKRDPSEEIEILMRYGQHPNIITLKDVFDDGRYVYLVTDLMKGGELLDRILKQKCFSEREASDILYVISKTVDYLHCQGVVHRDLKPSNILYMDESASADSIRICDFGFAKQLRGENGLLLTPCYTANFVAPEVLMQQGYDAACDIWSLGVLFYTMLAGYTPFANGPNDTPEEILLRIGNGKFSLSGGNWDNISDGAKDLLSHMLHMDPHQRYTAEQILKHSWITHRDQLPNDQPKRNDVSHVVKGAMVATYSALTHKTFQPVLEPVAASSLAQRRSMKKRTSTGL
# [4] = test system: FLT3 (human), P36888 [K663Q]
# MAP4K4 (human) = MAP4K4 (human) (UniProt O95819)
# ACVRL1 (human) = ACVRL1 (human) (UniProt P37023)
# ERN1 (human) = ERN1 (human) (UniProt O75460)
# RPS6KA5 KD2 (human) = RPS6KA5 KD2 (human) (UniProt O75582)
# RPS6KA1 KD2 (human) = RPS6KA1 KD2 (human) (UniProt Q15418)
# MARK4 (human) = MARK4 (human) (UniProt Q96L34)
# EGFR (human) = EGFR (human) (UniProt P00533)
# PAK4 (human) = PAK4 (human) (UniProt O96013)
# BMX (human) = BMX (human) (UniProt P51813)
# CDC42BPB (human) = CDC42BPB (human) (UniProt Q9Y5S2)
# MAP3K5 (human) = MAP3K5 (human) (UniProt Q99683)
# Sequence of MAP3K5 (human) (Q99683 whole entry, looked up): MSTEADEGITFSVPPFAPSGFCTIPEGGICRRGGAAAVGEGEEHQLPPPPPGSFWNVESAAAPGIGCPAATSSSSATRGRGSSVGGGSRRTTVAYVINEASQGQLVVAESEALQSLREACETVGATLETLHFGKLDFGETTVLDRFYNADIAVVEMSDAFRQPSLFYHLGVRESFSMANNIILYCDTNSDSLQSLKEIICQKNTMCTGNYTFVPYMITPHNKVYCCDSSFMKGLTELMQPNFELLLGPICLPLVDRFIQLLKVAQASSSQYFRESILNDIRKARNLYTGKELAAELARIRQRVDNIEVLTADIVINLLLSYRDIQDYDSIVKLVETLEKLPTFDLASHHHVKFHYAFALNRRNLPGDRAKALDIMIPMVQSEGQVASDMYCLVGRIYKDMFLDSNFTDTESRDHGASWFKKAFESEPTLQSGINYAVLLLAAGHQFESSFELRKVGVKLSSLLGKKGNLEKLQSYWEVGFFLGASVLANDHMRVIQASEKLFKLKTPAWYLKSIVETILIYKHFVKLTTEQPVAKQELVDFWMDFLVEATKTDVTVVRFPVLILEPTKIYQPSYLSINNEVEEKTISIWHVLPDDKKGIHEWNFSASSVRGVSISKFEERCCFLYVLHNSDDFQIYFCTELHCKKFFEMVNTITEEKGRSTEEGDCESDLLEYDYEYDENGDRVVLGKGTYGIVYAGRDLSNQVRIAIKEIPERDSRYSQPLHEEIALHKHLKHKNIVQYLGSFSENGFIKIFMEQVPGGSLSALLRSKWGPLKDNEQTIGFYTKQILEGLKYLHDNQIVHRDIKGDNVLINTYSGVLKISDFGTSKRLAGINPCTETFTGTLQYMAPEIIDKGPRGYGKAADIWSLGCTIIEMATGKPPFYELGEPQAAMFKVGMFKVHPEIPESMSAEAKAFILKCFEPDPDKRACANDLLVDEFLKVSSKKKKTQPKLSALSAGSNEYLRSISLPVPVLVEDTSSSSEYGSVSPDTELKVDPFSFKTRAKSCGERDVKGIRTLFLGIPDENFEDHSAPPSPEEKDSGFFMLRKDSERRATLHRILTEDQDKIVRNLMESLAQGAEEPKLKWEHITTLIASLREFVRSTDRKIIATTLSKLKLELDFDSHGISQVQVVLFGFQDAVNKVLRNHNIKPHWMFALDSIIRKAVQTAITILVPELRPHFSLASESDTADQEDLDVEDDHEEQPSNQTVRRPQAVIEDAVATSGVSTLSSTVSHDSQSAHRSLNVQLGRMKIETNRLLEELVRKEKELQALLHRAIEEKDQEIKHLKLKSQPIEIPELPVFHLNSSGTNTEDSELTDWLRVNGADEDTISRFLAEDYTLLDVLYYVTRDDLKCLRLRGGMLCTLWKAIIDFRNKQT
# FER (human) = FER (human) (UniProt P16591)
# Sequence of FER (human) (P16591 whole entry, looked up): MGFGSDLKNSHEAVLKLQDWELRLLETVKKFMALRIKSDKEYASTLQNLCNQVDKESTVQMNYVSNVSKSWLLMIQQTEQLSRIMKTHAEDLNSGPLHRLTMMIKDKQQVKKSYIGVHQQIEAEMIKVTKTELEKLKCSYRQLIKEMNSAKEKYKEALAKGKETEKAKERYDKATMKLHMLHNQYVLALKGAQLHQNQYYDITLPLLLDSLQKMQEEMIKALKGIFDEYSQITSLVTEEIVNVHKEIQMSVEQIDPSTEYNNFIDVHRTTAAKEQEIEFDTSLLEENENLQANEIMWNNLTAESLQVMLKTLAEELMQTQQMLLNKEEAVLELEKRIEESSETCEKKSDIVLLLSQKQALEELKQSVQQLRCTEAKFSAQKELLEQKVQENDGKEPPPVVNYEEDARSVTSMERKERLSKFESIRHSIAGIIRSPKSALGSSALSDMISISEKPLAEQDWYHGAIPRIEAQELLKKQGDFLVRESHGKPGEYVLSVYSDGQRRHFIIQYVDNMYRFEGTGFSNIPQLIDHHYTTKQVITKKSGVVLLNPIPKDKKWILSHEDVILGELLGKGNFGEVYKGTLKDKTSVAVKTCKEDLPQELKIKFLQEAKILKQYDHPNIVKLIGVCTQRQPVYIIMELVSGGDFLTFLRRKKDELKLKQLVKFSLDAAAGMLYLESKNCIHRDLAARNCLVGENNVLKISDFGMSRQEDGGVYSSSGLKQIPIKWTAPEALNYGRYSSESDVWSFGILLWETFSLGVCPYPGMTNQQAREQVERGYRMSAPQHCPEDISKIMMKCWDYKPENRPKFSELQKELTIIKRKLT
# ITK (human) = ITK (human) (UniProt Q08881)
# NEK9 (human) = NEK9 (human) (UniProt Q8TD19)
# [5] = test system: PIK3CA (human), P42336 [E545K]
# STK32B (human) = STK32B (human) (UniProt Q9NY57)
# CDKL5 (human) = CDKL5 (human) (UniProt O76039)
# HUNK (human) = HUNK (human) (UniProt P57058)
# NEK2 (human) = NEK2 (human) (UniProt P51955)
# DYRK1B (human) = DYRK1B (human) (UniProt Q9Y463)
# Sequence of PRKCD (human) (Q05655 whole entry, looked up): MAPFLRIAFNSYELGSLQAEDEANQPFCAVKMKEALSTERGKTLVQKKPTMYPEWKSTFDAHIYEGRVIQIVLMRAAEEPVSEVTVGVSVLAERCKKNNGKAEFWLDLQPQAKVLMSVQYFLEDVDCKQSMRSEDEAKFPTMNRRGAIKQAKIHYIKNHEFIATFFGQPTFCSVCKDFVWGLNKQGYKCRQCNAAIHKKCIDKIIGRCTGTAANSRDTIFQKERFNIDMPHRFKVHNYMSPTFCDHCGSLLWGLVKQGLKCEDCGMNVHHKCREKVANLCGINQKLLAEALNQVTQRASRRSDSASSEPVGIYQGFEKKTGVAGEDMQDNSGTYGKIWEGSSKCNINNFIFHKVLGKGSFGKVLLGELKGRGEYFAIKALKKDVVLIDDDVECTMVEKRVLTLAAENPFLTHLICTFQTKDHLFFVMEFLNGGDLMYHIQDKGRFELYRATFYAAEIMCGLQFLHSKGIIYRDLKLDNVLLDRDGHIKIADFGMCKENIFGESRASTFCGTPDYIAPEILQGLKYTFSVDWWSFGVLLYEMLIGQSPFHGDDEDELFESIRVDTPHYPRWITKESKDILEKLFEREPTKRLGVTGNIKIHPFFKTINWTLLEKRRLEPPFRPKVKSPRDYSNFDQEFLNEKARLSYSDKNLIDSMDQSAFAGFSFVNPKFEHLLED
compound,measurement,setting,value
COc1cc(C(=O)N2CCC(N3CCN(C)CC3)CC2)ccc1Nc1ncc2c(n1)N(C)c1ccccc1C(=O)N2C,"kinase still bound, per cent of control",PRKCD (human),75%
same,"kinase still bound, per cent of control",PTK6 (human),58%
same,"kinase still bound, per cent of control",CLK2 (human),72%
same,"kinase still bound, per cent of control",DYRK1A (human),99%
same,"kinase still bound, per cent of control",SLK (human),100%
same,"kinase still bound, per cent of control",MAP2K4 (human),100%
same,"kinase still bound, per cent of control",[1],72%
same,"kinase still bound, per cent of control",MAPK7 (human),0.05%
same,"kinase still bound, per cent of control",CSNK1E (human),95%
same,"kinase still bound, per cent of control",CLK4 (human),54%
same,"kinase still bound, per cent of control",[2],70%
same,"kinase still bound, per cent of control",CAMKK1 (human),73%
same,"kinase still bound, per cent of control",EPHB3 (human),100%
same,"kinase still bound, per cent of control",PDGFRA (human),100%
same,"kinase still bound, per cent of control",MAP2K1 (human),100%
same,"kinase still bound, per cent of control",[3],84%
same,"kinase still bound, per cent of control",MAPK3 (human),100%
same,"kinase still bound, per cent of control",CSK (human),90%
same,"kinase still bound, per cent of control",PRKD3 (human),42%
same,"kinase still bound, per cent of control",RPS6KA6 KD1 (human),92%
same,"kinase still bound, per cent of control",[4],97%
same,"kinase still bound, per cent of control",MAP4K4 (human),85%
same,"kinase still bound, per cent of control",ACVRL1 (human),100%
same,"kinase still bound, per cent of control",ERN1 (human),59%
same,"kinase still bound, per cent of control",RPS6KA5 KD2 (human),92%
same,"kinase still bound, per cent of control",RPS6KA1 KD2 (human),10%
same,"kinase still bound, per cent of control",MARK4 (human),78%
same,"kinase still bound, per cent of control",EGFR (human),84%
same,"kinase still bound, per cent of control",PAK4 (human),94%
same,"kinase still bound, per cent of control",BMX (human),87%
same,"kinase still bound, per cent of control",CDC42BPB (human),100%
same,"kinase still bound, per cent of control",MAP3K5 (human),100%
same,"kinase still bound, per cent of control",FER (human),51%
same,"kinase still bound, per cent of control",ITK (human),82%
same,"kinase still bound, per cent of control",NEK9 (human),100%
same,"kinase still bound, per cent of control",[5],100%
same,"kinase still bound, per cent of control",STK32B (human),100%
same,residual activity,CDKL5 (human),100%
same,"kinase still bound, per cent of control",HUNK (human),100%
same,"kinase still bound, per cent of control",NEK2 (human),100%
same,"kinase still bound, per cent of control",DYRK1B (human),94%
